Laboratory results taken from paper PMC4133103 (DNA repair, 2014).
Where two headings read alike, the source gives them in different places.

How the values were obtained:
[1] = target: T1, Dpo4•DNA binary complex (Saccharolobus solfataricus, UniProt Q97W02); assay: Substrate specificity assay; type: biochemical, Sulfolobus solfataricus; details: for Probability: efficiency/sum of efficiencies × 100; for Fidelity: incorrect/(correct+incorrect) efficiency; for kp / Kd: Dpo4 120 nM, 37 °C; for Kd: read-out: Kd,dNTP
T1 sequence (Q97W02 1-352): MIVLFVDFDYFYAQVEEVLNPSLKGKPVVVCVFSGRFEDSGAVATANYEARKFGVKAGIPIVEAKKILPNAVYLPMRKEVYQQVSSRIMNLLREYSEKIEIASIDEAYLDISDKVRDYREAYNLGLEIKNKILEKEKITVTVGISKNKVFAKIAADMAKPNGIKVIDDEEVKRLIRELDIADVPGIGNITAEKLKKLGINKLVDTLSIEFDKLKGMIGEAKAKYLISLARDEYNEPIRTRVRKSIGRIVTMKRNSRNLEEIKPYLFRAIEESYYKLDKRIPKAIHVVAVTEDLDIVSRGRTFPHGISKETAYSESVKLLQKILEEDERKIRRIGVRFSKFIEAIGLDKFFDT

[2] = test system: Salmonella typhimurium (TA98); details: cited from earlier work
[3] = test system: nucleotide excision repair-deficient human XPA cells; details: cited from earlier work
[4] = target: T2, Dpo4 (DNA polymerase IV) (Sulfolobus solfataricus, UniProt Q97W02 1-352); assay: EMSA
T2 sequence: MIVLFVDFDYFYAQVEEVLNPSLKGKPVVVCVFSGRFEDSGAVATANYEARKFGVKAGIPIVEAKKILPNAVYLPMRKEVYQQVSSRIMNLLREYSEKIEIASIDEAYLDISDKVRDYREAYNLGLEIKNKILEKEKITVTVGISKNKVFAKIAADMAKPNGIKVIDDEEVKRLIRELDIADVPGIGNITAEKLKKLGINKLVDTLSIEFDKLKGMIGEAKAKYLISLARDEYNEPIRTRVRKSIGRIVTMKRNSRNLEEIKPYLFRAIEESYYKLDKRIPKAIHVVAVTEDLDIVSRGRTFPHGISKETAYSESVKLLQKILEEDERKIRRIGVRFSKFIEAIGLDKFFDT

[5] = DNA substrate 18/26-mer-dG^C8-N-ABA
[6] = DNA substrate 18/26-mer-dG^C8-N-ABA vs control 18/26-mer
[7] = DNA substrate 19/26-mer-dG^C8-N-ABA
[8] = DNA substrate 19/26-mer-dG^C8-N-ABA vs control 19/26-mer
[9] = DNA substrate 20/26-mer-dG^C8-N-ABA (pause site)
[10] = DNA substrate 20/26-mer-dG^C8-N-ABA vs control 20/26-mer
[11] = DNA substrate 20/26-mer-dG^C8-N-ABA
[12] = DNA substrate 21/26-mer-dG^C8-N-ABA (pause site)
[13] = DNA substrate 21/26-mer-dG^C8-N-ABA (pause site) 30 nM
[14] = DNA substrate 21/26-mer-dG^C8-N-ABA vs control 21/26-mer
[15] = DNA substrate 21/26-mer-dG^C8-N-ABA
[16] = DNA substrate 22/26-mer-dG^C8-N-ABA
[17] = DNA substrate 22/26-mer-dG^C8-N-ABA vs control 22/26-mer
[18] = DNA substrate 21/26-mer-dG^C8-N-ABA (pause site, extension) 30 nM
[19] = DNA substrate 22/26-mer-dG^C8-N-ABA 30 nM
[20] = DNA substrate 18/26-mer-dG^C8-N-ABA 30 nM
[21] = DNA substrate 19/26-mer-dG^C8-N-ABA 30 nM
[22] = DNA substrate 20/26-mer-dG^C8-N-ABA (pause site) 30 nM

Cc1cn([C@H]2C[C@H](O)[C@@H](COP(=O)(O)OP(=O)(O)OP(=O)(O)O)O2)c(=O)[nH]c1=O [dTTP]
(kp/Kd, dNTP)damaged [1, 5]: 16 M⁻¹ s⁻¹
Efficiency Ratio (kp/Kd, dNTP)control/(kp/Kd, dNTP)damaged [1, 6]: 5.4
Probability [1, 5]: 0.02
(kp/Kd, dNTP)damaged [1, 7]: 5.5 M⁻¹ s⁻¹
Efficiency Ratio (kp/Kd, dNTP)control/(kp/Kd, dNTP)damaged [1, 8]: 1.6
Probability [1, 7]: 0.05
Fidelity [1, 7]: 5.7 × 10^−4
(kp/Kd, dNTP)damaged [1, 9]: 1.6 M⁻¹ s⁻¹
Efficiency Ratio (kp/Kd, dNTP)control/(kp/Kd, dNTP)damaged [1, 10]: 52
Probability [1, 11]: 0.32
(kp/Kd, dNTP)damaged [1, 12]: 0.4 M⁻¹ s⁻¹
kp [1, 13]: (1.7 ± 0.1) × 10^−4 s^−1
Efficiency Ratio (kp/Kd, dNTP)control/(kp/Kd, dNTP)damaged [1, 14]: 4.5
Probability [1, 15]: 1.57
Fidelity [1, 15]: 1.8 × 10^−2
(kp/Kd, dNTP)damaged [1, 16]: 2.2 M⁻¹ s⁻¹
Efficiency Ratio (kp/Kd, dNTP)control/(kp/Kd, dNTP)damaged [1, 17]: 5.0
Probability [1, 16]: 0.07
Fidelity [1, 16]: 6.9 × 10^−4
Kd [1, 18]: 420 ± 80 µM
Kd [1, 19]: 770 ± 140 µM

O=C1c2ccccc2-c2ccc([N+](=O)[O-])c3cccc1c23 [3-NBA, 3-Nitrobenzanthrone]
mutagenicity [2]: one of the most mutagenic compound ever tested

Nc1ccn([C@H]2C[C@H](O)[C@@H](COP(=O)(O)OP(=O)(O)OP(=O)(O)O)O2)c(=O)n1 [dCTP]
(kp/Kd, dNTP)damaged [1, 5]: 88000 M⁻¹ s⁻¹
kp [1, 20]: 2.83 ± 0.08 s⁻¹
Efficiency Ratio (kp/Kd, dNTP)control/(kp/Kd, dNTP)damaged [1, 6]: 1.25
Probability [1, 5]: 99.95
(kp/Kd, dNTP)damaged [1, 7]: 6.4 M⁻¹ s⁻¹
kp [1, 21]: (1.4 ± 0.2) × 10^−3 s^−1
Efficiency Ratio (kp/Kd, dNTP)control/(kp/Kd, dNTP)damaged [1, 8]: 22
Probability [1, 7]: 0.06
Fidelity [1, 7]: 6.7 × 10^−4
(kp/Kd, dNTP)damaged [1, 9]: 490 M⁻¹ s⁻¹
kp [1, 22]: 0.25 ± 0.02 s⁻¹
Efficiency Ratio (kp/Kd, dNTP)control/(kp/Kd, dNTP)damaged [1, 10]: 120
Probability [1, 11]: 98.93
(kp/Kd, dNTP)damaged [1, 12]: 2.7 M⁻¹ s⁻¹
kp [1, 13]: (4.3 ± 0.1) × 10^−4 s^−1
Efficiency Ratio (kp/Kd, dNTP)control/(kp/Kd, dNTP)damaged [1, 14]: 12
Probability [1, 15]: 10.34
Fidelity [1, 15]: 1.1 × 10^−1
kp [1, 19]: 4.5 ± 0.7 s⁻¹
Efficiency Ratio (kp/Kd, dNTP)control/(kp/Kd, dNTP)damaged [1, 17]: 11
Probability [1, 16]: 99.55
Kd [1, 20]: 32 ± 5 µM
Kd [1, 21]: 220 ± 80 µM
Kd [1, 18]: 160 ± 20 µM
Kd [1, 19]: 1400 ± 300 µM

Nc1nc2c(nc(Nc3ccc4c5c(cccc35)C(=O)c3ccccc3-4)n2[C@H]2C[C@H](O)[C@@H](CO)O2)c(=O)[nH]1 [dG^C8-N-ABA, N-(2’-deoxyguanosin-8-yl)-3-aminobenzanthrone]
replication block among the three major 3-NBA derived DNA adducts [3]: strongest replication block
mutational frequency ([3]; primarily G-to-A transitions followed by G-to-T transversions): 30.6%

Nc1nc2c(ncn2[C@H]2C[C@H](O)[C@@H](COP(=O)(O)OP(=O)(O)OP(=O)(O)O)O2)c(=O)[nH]1 [dGTP]
(kp/Kd, dNTP)damaged [1, 5]: 18 M⁻¹ s⁻¹
Efficiency Ratio (kp/Kd, dNTP)control/(kp/Kd, dNTP)damaged [1, 6]: 1.6
Probability [1, 5]: 0.02
(kp/Kd, dNTP)damaged [1, 7]: 9600 M⁻¹ s⁻¹
kp [1, 21]: 0.48 ± 0.02 s⁻¹
Efficiency Ratio (kp/Kd, dNTP)control/(kp/Kd, dNTP)damaged [1, 8]: 2.6
Probability [1, 7]: 99.82
(kp/Kd, dNTP)damaged [1, 9]: 0.68 M⁻¹ s⁻¹
kp [1, 22]: (8.1 ± 0.1) × 10^−4 s^−1
Efficiency Ratio (kp/Kd, dNTP)control/(kp/Kd, dNTP)damaged [1, 10]: 66
Probability [1, 11]: 0.14
Fidelity [1, 11]: 1.4 × 10^−4
(kp/Kd, dNTP)damaged [1, 12]: 22 M⁻¹ s⁻¹
kp [1, 13]: (8.9 ± 0.7) × 10^−4 s^−1
Efficiency Ratio (kp/Kd, dNTP)control/(kp/Kd, dNTP)damaged [1, 14]: 170
Probability [1, 15]: 84.26
(kp/Kd, dNTP)damaged [1, 16]: 1.3 M⁻¹ s⁻¹
Efficiency Ratio (kp/Kd, dNTP)control/(kp/Kd, dNTP)damaged [1, 17]: 6.5
Probability [1, 16]: 0.04
Fidelity [1, 16]: 4.1 × 10^−4
Kd [1, 20]: 350 ± 40 µM
Kd [1, 21]: 50 ± 9 µM
Kd [1, 18]: 400 ± 80 µM
Kd [1, 19]: 1100 ± 200 µM

Nc1ncnc2c1ncn2[C@H]1C[C@H](O)[C@@H](COP(=O)(O)OP(=O)(O)OP(=O)(O)O)O1 [dATP]
(kp/Kd, dNTP)damaged [1, 5]: 9.1 M⁻¹ s⁻¹
Efficiency Ratio (kp/Kd, dNTP)control/(kp/Kd, dNTP)damaged [1, 6]: 0.85
Probability [1, 5]: 0.01
(kp/Kd, dNTP)damaged [1, 7]: 6.7 M⁻¹ s⁻¹
kp [1, 21]: (2.9 ± 0.2) × 10^−3 s^−1
Efficiency Ratio (kp/Kd, dNTP)control/(kp/Kd, dNTP)damaged [1, 8]: 2.1
Probability [1, 7]: 0.07
Fidelity [1, 7]: 7.0 × 10^−4
(kp/Kd, dNTP)damaged [1, 9]: 3 M⁻¹ s⁻¹
Efficiency Ratio (kp/Kd, dNTP)control/(kp/Kd, dNTP)damaged [1, 10]: 6.3
Probability [1, 11]: 0.61
Fidelity [1, 11]: 6.1 × 10^−4
(kp/Kd, dNTP)damaged [1, 12]: 1 M⁻¹ s⁻¹
kp [1, 13]: (4.5 ± 0.2) × 10^−4 s^−1
Efficiency Ratio (kp/Kd, dNTP)control/(kp/Kd, dNTP)damaged [1, 14]: 2.4
Probability [1, 15]: 3.83
Fidelity [1, 15]: 4.3 × 10^−2
(kp/Kd, dNTP)damaged [1, 16]: 11 M⁻¹ s⁻¹
Efficiency Ratio (kp/Kd, dNTP)control/(kp/Kd, dNTP)damaged [1, 17]: 0.38
Probability [1, 16]: 0.34
Fidelity [1, 16]: 3.4 × 10^−4
Kd [1, 20]: 2200 ± 600 µM
Kd [1, 21]: 430 ± 60 µM
Kd [1, 18]: 450 ± 50 µM
Kd [1, 19]: 470 ± 70 µM

B1: 21/26-mer-dGC8-N-ABA (dsDNA)
DNA 1: AACGACGGCCAGTGAATTCGC
DNA 2: CCCGCGCGAATTCACTGGCCGTCGTT
modifications: N-(2'-deoxyguanosin-8-yl)-3-aminobenzanthrone (dGC8-N-ABA) at G6 of strand 2 (from 5' end)
Kd [4]: 0.029 ± 0.007 µM

B2: 22/26-mer-dGC8-N-ABA (dsDNA)
DNA 1: AACGACGGCCAGTGAATTCGCG
DNA 2: CCCGCGCGAATTCACTGGCCGTCGTT
modifications: N-(2'-deoxyguanosin-8-yl)-3-aminobenzanthrone (dGC8-N-ABA) at G6 of strand 2 (from 5' end)
Kd [4]: 0.005 ± 0.0009 µM
